Source: patent US8268814B2, “Substituted sulfonamide compounds” (Gruenenthal GmbH, priority 2008, dated 2012)

Tests used:
[1] = biological target: T1, B1R receptor of the rat (rB1R) (Rattus norvegicus, UniProt P97583); assay: Functional FLIPR Ca2+ assay on the bradykinin 1 receptor, rat (rB1R CHO K1 cells); assay type: cell-based; details: test substance 10 μM; CHO K1 cells transfected with rat B1R gene; agonist Des-Arg9-bradykinin at EC80; % inhibition compared with maximum achievable inhibition; read-out: B1R antagonism, rat [10 μM] % inhibition
T1 construct: expressed in transfected cells; host or cells: CHO K1 cells (Chinese hamster ovary), stably transfected
T1 sequence (P97583 1-337): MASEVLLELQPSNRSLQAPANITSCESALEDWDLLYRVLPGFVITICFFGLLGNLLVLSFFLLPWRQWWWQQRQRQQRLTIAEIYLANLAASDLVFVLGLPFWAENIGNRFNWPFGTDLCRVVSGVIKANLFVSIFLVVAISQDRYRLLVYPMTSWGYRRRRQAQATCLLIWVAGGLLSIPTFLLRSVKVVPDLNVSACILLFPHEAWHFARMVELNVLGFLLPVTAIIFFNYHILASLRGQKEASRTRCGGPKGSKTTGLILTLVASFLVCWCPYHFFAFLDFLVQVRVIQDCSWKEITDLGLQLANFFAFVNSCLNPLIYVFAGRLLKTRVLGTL
In short: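 Stably transfected CHO K1 cells expressing human or rat B1R, Fluo-4-loaded, Ca2+ influx read by FLIPR (peak fluorescence). Compounds (10 μM for % activation) preincubated 10-20 min, then EC80 agonist added: Lys-Des-Arg9-bradykinin for human, Des-Arg9-bradykinin for rat; % inhibition versus maximal inhibition, IC50 from concentration series.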

[2] = biological target: T2, human B1R receptor (hB1R) (Homo sapiens, UniProt P46663); assay: Functional FLIPR Ca2+ assay on the bradykinin 1 receptor, human (hB1R CHO K1 cells); assay type: cell-based; details: test substance 10 μM; CHO K1 cells transfected with human B1R gene; agonist Lys-Des-Arg9-bradykinin at EC80; % inhibition compared with maximum achievable inhibition; read-out: B1R antagonism, human (10 μM] % inhibition
T2 construct: expressed in transfected cells; host or cells: CHO K1 cells (Chinese hamster ovary), stably transfected
T2 sequence (P46663 1-353): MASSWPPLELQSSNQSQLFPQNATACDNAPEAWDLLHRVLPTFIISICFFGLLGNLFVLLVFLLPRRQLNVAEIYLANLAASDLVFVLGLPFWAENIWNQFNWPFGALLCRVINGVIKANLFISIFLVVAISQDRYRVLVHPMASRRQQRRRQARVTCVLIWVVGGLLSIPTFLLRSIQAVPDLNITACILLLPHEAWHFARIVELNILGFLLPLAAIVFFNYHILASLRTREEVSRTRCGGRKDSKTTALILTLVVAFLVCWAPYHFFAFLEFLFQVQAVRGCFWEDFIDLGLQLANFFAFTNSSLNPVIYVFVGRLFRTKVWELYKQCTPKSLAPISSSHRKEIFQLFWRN
Description: The agonistic or antagonistic action of substances can be quantified on the bradykinin 1 receptor (B1R) of the human and rat species with ectopically expressing cell lines (CHO K1 cells) and with the aid of a Ca^2+-sensitive dyestuff (Fluo-4) in a fluorescent imaging plate reader (FLIPR). The figure in % activation is based on the Ca^2+ signal after addition of Lys-Des-Arg^9-bradykinin (0.5 nM) or Des-Arg^9-bradykinin (100 nM). Antagonists lead to a suppression of the Ca^2+ inflow after addition of the agonist. % inhibition compared with the maximum achievable inhibition is stated.
The agonistic or antagonistic action of substances can be determined on the bradykinin 1 receptor (B1R) of the human and rat species with the following assay. In accordance with this assay, the Ca^2+ inflow through the channel is quantified with the aid of a Ca^2+-sensitive dyestuff (type Fluo-4, Molecular Probes Europe BV, Leiden, Holland) in a fluorescent imaging plate reader (FLIPR, Molecular Devices, Sunnyvale, USA).
Chinese hamster ovary cells (CHO K1 cells) transfected stably with the human B1R gene (hB1R cells) or the B1R gene of the rat (rB1R cells) are used. For functional studies, these cells are plated out on black 96-well plates with a clear base (BD Biosciences, Heidelberg, Germany or Greiner, Frickenhausen, Germany) in a density of 20,000-35,000 cells/well. The cells are left overnight at 37° C. and 5% CO2 in culture medium (hB1R cells: Nutrient Mixture Ham's F12, Gibco Invitrogen GmbH, Karlsruhe, Germany or DMEM, Sigma-Aldrich, Taufkirchen, Germany; rB1R cells: D-MEM/F12, Gibco Invitrogen GmbH, Karlsruhe, Germany) with 10 vol. % FBS (foetal bovine serum, Gibco Invitrogen GmbH, Karlsruhe, Germany or PAN Biotech GmbH, Aidenbach, Germany). On the following day, the cells are loaded for 60 min at 37° C. with 2.13 μM Fluo-4 (Molecular Probes Europe BV, Leiden, Holland) in HBSS buffer (Hank's buffered saline solution, Gibco Invitrogen GmbH, Karlsruhe, Germany) with 2.5 mM probenecid (Sigma-Aldrich, Taufkirchen, Germany) and 10 mM HEPES (Sigma-Aldrich, Taufkirchen, Germany). The plates are then washed 2× with HBSS buffer, and HBSS buffer which additionally contains 0.1% BSA (bovine serum albumin; Sigma-Aldrich, Taufkirchen, Germany), 5.6 mM glucose and 0.05% gelatine (Merck KgaA, Darmstadt, Germany) is added. After a further incubation of 20 minutes at room temperature, the plates are inserted into the FLIPR for the Ca^2+ measurement.
Alternatively, the plates are washed with buffer A (15 mM HEPES, 80 mM NaCl, 5 mM KCl, 1.2 mM CaCl2, 0.7 mM MgSO4, 2 g/l glucose, 2.5 mM probenecid), buffer A is added and the plates are loaded with 2.5 μM Fluo-4 and 0.025% Pluronic F127 (Sigma-Aldrich, Taufkirchen, Germany). Thereafter, the cells are washed 2× with buffer A and incubated for 30 minutes with buffer A, which additionally contains 0.05% BSA and 0.05% gelatine, at room temperature and thereafter inserted into the FLIPR for the Ca^2+ measurement. The Ca^2+-dependent fluorescence is measured here before and after addition of substances (λex=488 nm, λem=540 nm). Quantification is by measurement of the highest fluorescence intensity (FC, fluorescence counts) over time.
The FLIPR protocol consists of 2 additions of substance. Test substances (10 μM) are first pipetted on to the cells and the Ca^2+ inflow is compared with the control (hB1R: Lys-Des-Arg^9-bradykinin >=50 nM; rB1R: Des-Arg^9-bradykinin 10 μM). This gives the figure in % activation based on the Ca^2+ signal after addition of Lys-Des-Arg^9-bradykinin (>=50 nM) or Des-Arg^9-bradykinin (10 μM). After incubation for 10-20 minutes, Lys-Des-Arg^9-bradykinin (hB1R) or Des-Arg^9-bradykinin (rB1R) in the concentration of the EC80 is applied and the inflow of Ca^2+ is likewise determined. Antagonists lead to a suppression of the Ca^2+ inflow. % inhibition compared with the maximum achievable inhibition is calculated. In order to determine the IC50 value, the substances are added in various concentrations. […]

inhibition at 10 µM [1] [%] | inhibition at 10 µM [2] [%] | SMILES
98 | 46 | COc1cc(C)c(S(=O)(=O)N2CCCCC2CCC(=O)N2CCc3onc(-c4ccncc4)c3C2)c(C)c1 (stereo not shown) [Example 01, 3-(1-(4-Methoxy-2,6-dimethylphenylsulfonyl)piperidin-2-yl)-1-(3-(pyridin-4-yl)-6,7-dihydroisoxazolo[4,5-c]pyridin-5(4H)-yl)propan-1-one]
104 | 64 | COc1cc(C)c(S(=O)(=O)N2CCCCC2COCC(=O)N2CCc3sccc3C2c2ccccc2C)c(C)c1 (stereo not shown) [Example 12, 2-((1-(4-methoxy-2,6-dimethylphenylsulfonyl)piperidin-2-yl)methoxy)-1-(4-o-tolyl-6,7-dihydrothieno[3,2-c]pyridin-5(4H)-yl)ethanone]
100 | 73 | COc1cc(C)c(S(=O)(=O)N2CCCCC2COCC(=O)N2CCc3onc(-c4ccc(Cl)cc4)c3C2)c(C)c1 (stereo not shown) [Example 24, 1-(3-(4-chlorophenyl)-6,7-dihydroisoxazolo[4,5-c]pyridin-5(4H)-yl)-2-((1-(4-methoxy-2,6-dimethylphenylsulfonyl)piperidin-2-yl)methoxy)ethanone]
99 | 56 | COc1cc(C)c(S(=O)(=O)N(C)CCOCC(=O)N2CCc3onc(CN4CCCCC4)c3C2)c(C)c1 [Example 13, 4-methoxy-N,2,6-trimethyl-N-(2-(2-oxo-2-(3-(piperidin-1-ylmethyl)-6,7-dihydroisoxazolo[4,5-c]pyridin-5(4H)-yl)ethoxy)ethyl)benzenesulfonamide]
109 | 100 | COc1cc(C)c(S(=O)(=O)N(C)CCOCC(=O)N2CCc3sc(CN4CCCCC4)cc3C2)c(C)c1 [Example 28, 4-Methoxy-N,2,6-trimethyl-N-(2-(2-oxo-2-(2-(piperidin-1-yl-methyl)-6,7-dihydrothieno[3,2-c]pyridin-5(4H)-yl)ethoxy)ethyl)benzene-sulfonamide]
105 | 100 | COc1cc(C)c(S(=O)(=O)N2CCCCC2COCC(=O)N2CCc3onc(CN4CCCCC4)c3C2)c(C)c1 (stereo not shown) [Example 09, 2-((1-(4-methoxy-2,6-dimethylphenylsulfonyl)piperidin-2-yl)methoxy)-1-(3-(piperidin-1-ylmethyl)-6,7-dihydroisoxazolo[4,5-c]pyridin-5(4H)-yl)ethanone]
100 | 96 | COc1cc(C)c(S(=O)(=O)N2CCCCC2COCC(=O)N2CCc3sccc3C2c2ccc(F)cc2)c(C)c1 (stereo not shown) [Example 22, 1-(4-(4-fluorophenyl)-6,7-dihydrothieno[3,2-c]pyridin-5(4H)-yl)-2-((1-(4-methoxy-2,6-dimethylphenylsulfonyl)piperidin-2-yl)methoxy)ethanone]
81 | 43 | Cc1cc(S(=O)(=O)N2CCCCC2CCC(=O)N2CCc3sccc3C2c2ccccc2)c(C)cc1Cl (stereo not shown) [Example 16, 3-(1-(4-chloro-2,5-dimethylphenylsulfonyl)piperidin-2-yl)-1-(4-phenyl-6,7-dihydrothieno[3,2-c]pyridin-5(4H)-yl)propan-1-one]
96 | 11 | Cc1ccc(C2c3ccsc3CCN2C(=O)C[C@@H](NS(=O)(=O)c2ccc3ccccc3c2)c2ccccc2)cc1 (stereo partly drawn) [Example 20, N-((1R)-3-oxo-1-phenyl-3-(4-p-tolyl-6,7-dihydrothieno[3,2-c]pyridin-5(4H)-yl)propyl)naphthalene-2-sulfonamide]
35 | 40 | Cc1cc(S(=O)(=O)N2CCCCC2CCC(=O)N2CCc3sccc3C2c2ccc(Cl)nc2)c(C)cc1Cl (stereo not shown) [Example 33, 3-(1-(4-chloro-2,5-dimethylphenylsulfonyl)piperidin-2-yl)-1-(4-(6-chloropyridin-3-yl)-6,7-dihydrothieno[3,2-c]pyridin-5(4H)-yl)propan-1-one]
99 | 85 | COc1cc(C)c(S(=O)(=O)N2CCCCC2COCC(=O)N2CCc3onc(C(=O)N4CCCCC4)c3C2)c(C)c1 (stereo not shown) [Example 14, 2-((1-(4-methoxy-2,6-dimethylphenylsulfonyl)piperidin-2-yl)methoxy)-1-(3-(piperidin-1-carbonyl)-6,7-dihydroisoxazolo[4,5-c]pyridin-5(4H)-yl)ethanone]
57 | 29 | Cc1cc(S(=O)(=O)N2CCCCC2CCC(=O)N2CCc3sccc3C2c2cccc(C(F)(F)F)c2)c(C)cc1Cl (stereo not shown) [Example 34, 3-(1-(4-chloro-2,5-dimethylphenylsulfonyl)piperidin-2-yl)-1-(4-(3-(trifluoromethyl)phenyl)-6,7-dihydrothieno[3,2-c]pyridin-5(4H)-yl)propan-1-one]
99 | 99 | COc1cc(C)c(S(=O)(=O)N2CCCCC2CCCC(=O)N2CCc3nc(Cc4ccncc4)sc3C2)c(C)c1 (stereo not shown) [Example 43, 4-(1-(4-methoxy-2,6-dimethylphenylsulfonyl)piperidin-2-yl)-1-(2-(pyridin-4-ylmethyl)-6,7-dihydrothiazolo[5,4-c]pyridin-5(4H)-yl)butan-1-one]
55 | 49 | O=C(C[C@@H](NS(=O)(=O)c1ccc2ccccc2c1)c1ccccc1)N1CCc2onc(CN3CCCCC3)c2C1 [Example 17, I—N-(3-oxo-1-phenyl-3-(3-(piperidin-1-ylmethyl)-6,7-dihydroisoxazolo[4,5-c]pyridin-5(4H)-yl)propyl)naphthalene-2-sulfonamide]
